The test system of one data set is Caco-2 cell monolayers. In words: Caco-2 permeation assay. To be noted: 5 μM, A-B direction, with Verapamil (25 μM). It is filed as in vitro ADME. Put shortly: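 Passive A-to-B permeability with P-gp inhibited by verapamil (25 μM); compound at 5 μM, n=2. Both compartments sampled at t0 and t120 and quantified by LC-MS/MS, giving apparent permeability in cm/sec from flux, area and concentration.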

The test system of data set [1] is IL-2 stimulated STAT5 phosphorylation in Tall-1 human T cell line (JAK3). Description: Cellular JAK3 potency assay: inhibition of IL-2 stimulated pSTAT5 in Tall-1 T cells. To be noted: IL-2 stimulated pSTAT5, Tall-1 T cells. It is filed as cell-based. Put shortly: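 AlphaLISA SureFire Ultra measures STAT5 Tyr694/699 phosphorylation in lysed Tall-1 human T cells. Cells were exposed to compound for 1 h at 37 °C before a 30 min IL-2 challenge (300 ng/ml final). Values are pIC50 means with standard deviation from signal-versus-concentration curves.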

The next data set concerns the target Tyk2 (Homo sapiens (Human), UniProt P29597). In words: Biochemical Tyk2 kinase assay (LanthaScreen). Put shortly:
(§1)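 GST-JAK + GFP-STAT1 peptide, HEPES pH 7.5/MgCl2/EGTA/Brij-35 buffer; cpd preincubation 1 h RT; ATP start, 1 h RT; stop with 10 mM EDTA + 2 nM Tb-anti-pSTAT1; TR-FRET 520/495. 4-parameter IC50 → pKi (Cheng-Prusoff).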

The target in the next data set is JAK3 (Homo sapiens (Human), UniProt P52333). Description: Biochemical JAK3 kinase assay (LanthaScreen). To be noted: for JAK3 (pKi)-JAK1 (pKi): selectivity JAK3 over JAK1, difference of pKi. Put shortly: as §1
On the technique in general: In TR-FRET formats the signal depends on donor and acceptor labels being close together.

A further data set has as its target JAK1 (Homo sapiens (Human), UniProt P23458). Description: Biochemical JAK1 kinase assay (LanthaScreen). Put shortly: as §1
In the next data set the target is JAK2 (Homo sapiens (Human), UniProt O60674). Description: Biochemical JAK2 kinase assay (LanthaScreen). Put shortly: as §1
JAK2, sequence (O60674 whole entry): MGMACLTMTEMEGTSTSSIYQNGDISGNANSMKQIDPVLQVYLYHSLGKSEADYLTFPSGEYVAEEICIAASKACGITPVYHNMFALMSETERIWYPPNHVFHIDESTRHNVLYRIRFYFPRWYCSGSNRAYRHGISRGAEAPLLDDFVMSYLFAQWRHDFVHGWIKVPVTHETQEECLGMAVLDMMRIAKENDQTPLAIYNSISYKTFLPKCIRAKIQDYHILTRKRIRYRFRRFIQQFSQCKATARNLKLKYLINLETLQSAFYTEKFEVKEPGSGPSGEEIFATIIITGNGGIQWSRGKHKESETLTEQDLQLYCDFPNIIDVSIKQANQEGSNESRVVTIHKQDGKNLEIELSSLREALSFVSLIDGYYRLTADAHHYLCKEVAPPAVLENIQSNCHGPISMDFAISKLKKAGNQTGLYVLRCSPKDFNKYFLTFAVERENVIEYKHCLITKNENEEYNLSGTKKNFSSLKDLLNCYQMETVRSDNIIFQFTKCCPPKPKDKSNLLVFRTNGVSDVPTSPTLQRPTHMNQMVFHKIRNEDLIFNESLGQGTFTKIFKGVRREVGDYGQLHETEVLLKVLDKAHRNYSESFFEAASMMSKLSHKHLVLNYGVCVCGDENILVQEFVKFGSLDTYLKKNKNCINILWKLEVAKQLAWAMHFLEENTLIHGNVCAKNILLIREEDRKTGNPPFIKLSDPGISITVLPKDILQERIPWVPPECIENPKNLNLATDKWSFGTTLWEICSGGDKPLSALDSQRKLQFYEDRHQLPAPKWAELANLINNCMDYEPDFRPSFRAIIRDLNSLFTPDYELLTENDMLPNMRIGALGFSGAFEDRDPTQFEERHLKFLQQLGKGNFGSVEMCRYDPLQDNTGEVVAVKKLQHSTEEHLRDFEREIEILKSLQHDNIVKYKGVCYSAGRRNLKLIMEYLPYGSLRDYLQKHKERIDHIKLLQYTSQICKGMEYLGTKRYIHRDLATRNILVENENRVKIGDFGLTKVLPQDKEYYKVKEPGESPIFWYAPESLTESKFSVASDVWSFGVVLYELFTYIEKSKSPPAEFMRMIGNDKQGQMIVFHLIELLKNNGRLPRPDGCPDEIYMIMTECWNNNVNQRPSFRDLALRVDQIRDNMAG

Tyk2, sequence (P29597 whole entry): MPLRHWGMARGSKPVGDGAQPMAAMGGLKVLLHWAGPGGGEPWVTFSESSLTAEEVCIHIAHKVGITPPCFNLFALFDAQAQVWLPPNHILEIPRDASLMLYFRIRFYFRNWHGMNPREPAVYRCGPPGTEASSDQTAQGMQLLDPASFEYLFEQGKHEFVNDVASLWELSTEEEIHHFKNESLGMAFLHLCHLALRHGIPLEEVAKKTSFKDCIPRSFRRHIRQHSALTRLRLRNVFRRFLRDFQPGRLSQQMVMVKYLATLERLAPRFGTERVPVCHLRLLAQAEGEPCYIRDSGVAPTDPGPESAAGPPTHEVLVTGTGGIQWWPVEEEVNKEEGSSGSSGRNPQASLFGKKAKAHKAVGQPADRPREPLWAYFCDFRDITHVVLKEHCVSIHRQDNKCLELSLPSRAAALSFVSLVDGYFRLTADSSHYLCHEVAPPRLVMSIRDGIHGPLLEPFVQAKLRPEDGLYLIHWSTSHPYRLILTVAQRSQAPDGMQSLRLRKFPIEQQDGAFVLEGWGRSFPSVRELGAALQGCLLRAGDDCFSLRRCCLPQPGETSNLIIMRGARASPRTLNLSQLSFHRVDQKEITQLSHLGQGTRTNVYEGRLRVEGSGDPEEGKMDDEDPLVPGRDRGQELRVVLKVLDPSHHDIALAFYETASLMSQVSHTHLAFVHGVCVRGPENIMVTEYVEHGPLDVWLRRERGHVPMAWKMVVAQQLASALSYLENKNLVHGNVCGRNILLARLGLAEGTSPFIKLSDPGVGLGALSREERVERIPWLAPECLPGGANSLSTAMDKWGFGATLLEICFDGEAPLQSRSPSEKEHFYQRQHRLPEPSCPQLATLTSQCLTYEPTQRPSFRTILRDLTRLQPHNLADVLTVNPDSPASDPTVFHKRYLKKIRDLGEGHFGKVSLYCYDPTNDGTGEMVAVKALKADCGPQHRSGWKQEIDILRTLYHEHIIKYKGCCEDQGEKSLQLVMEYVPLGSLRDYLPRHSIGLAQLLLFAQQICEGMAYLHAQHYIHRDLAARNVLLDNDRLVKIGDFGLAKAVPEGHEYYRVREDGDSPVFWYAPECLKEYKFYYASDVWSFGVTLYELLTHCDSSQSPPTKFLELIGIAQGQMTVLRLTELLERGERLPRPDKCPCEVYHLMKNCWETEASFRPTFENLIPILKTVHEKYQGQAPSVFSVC
JAK3, sequence (P52333 whole entry): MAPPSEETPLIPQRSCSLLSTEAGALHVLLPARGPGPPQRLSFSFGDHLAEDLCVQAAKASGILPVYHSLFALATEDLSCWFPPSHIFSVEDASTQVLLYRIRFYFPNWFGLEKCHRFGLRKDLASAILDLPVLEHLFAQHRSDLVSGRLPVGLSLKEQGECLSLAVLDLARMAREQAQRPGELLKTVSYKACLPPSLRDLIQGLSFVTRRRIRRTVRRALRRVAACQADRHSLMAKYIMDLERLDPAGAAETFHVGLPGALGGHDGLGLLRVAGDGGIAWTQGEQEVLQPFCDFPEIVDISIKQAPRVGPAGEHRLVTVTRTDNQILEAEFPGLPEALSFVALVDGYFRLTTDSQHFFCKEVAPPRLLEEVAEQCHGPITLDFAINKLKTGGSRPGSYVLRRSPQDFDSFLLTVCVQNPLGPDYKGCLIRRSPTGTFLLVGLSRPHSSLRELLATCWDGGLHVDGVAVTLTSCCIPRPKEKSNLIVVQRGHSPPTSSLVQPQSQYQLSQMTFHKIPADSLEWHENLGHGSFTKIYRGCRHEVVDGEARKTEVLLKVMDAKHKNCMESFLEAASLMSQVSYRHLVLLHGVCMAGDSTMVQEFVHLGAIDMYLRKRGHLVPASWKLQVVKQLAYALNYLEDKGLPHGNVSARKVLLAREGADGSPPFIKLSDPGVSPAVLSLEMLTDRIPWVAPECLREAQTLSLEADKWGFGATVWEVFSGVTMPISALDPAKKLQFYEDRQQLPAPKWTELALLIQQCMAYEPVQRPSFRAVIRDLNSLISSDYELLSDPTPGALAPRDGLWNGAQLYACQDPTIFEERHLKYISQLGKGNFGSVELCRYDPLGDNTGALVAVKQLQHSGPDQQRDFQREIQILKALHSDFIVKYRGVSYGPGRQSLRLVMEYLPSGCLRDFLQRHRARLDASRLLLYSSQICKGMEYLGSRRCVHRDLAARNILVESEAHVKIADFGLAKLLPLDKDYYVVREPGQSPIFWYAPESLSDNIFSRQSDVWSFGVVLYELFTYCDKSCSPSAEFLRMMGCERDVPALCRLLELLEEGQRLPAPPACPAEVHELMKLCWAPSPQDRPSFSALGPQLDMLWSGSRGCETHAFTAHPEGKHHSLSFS
JAK1, sequence (P23458 whole entry): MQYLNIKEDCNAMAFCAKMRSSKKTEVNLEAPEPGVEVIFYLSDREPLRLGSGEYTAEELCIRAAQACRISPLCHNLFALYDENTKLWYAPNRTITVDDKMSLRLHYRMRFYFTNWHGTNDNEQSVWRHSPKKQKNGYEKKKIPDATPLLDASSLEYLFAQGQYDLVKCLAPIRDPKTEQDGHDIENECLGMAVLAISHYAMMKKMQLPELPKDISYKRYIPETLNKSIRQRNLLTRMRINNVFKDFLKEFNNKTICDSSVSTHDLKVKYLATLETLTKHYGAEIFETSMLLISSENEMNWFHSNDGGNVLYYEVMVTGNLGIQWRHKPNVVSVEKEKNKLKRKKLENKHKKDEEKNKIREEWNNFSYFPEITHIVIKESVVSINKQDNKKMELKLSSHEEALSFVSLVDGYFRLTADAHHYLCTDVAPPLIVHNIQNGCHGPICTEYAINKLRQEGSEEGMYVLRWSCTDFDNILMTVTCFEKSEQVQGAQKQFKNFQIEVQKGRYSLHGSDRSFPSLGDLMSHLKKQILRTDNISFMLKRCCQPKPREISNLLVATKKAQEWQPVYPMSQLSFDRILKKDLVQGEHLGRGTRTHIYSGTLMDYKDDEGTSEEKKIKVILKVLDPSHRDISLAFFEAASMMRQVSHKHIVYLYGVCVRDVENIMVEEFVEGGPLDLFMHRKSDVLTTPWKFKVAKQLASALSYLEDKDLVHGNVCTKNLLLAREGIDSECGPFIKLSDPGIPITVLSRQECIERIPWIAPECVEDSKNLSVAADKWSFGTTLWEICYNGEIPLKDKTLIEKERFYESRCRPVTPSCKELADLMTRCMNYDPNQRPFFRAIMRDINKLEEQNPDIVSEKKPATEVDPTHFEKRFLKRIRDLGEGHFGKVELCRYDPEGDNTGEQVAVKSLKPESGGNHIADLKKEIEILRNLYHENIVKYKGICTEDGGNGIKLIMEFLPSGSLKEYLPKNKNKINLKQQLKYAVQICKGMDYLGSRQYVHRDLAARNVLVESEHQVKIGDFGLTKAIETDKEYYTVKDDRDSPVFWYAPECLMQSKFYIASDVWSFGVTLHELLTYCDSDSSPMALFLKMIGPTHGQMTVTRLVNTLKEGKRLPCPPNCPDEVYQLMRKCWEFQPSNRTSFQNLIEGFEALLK

Turning to `C=CC(=O)N1CCN(CCn2c(=O)ccc3cnc(Nc4cnn(C)c4)nc32)[C@@H](CO)C1` [Example 131], the “Caco Kp” value with Caco-2 cell monolayers is recorded as “A (A represents a value below 5×10^−6 cm/sec)”. Also, the “Tall-1 (pIC50)” value in data set [1] was “C (C represents a pIC50 value between 6 and 6.7 (IC50 between 1 μM and 200 nM))”. In addition, at Tyk2, the “Tyk 2 (pKi)” value was “E (E represents a pKi value of 7 or below (Ki of 100 nM or above))”. Moreover, at JAK3, the “JAK 3 (pKi)” value was “B (B represents pKi value between 9 and 10 (Ki between 1 nM and 0.1 nM))”; the “JAK3 (pKi)-JAK1 (pKi)” value is “A (A represents a value of 3 or above)”. Also, the “JAK 1 (pKi)” value at JAK1 was “E (E represents a pKi value of 7 or below (Ki of 100 nM or above))”. For the same molecule, the “JAK 2 (pKi)” value at JAK2 is recorded as “E (E represents a pKi value of 7 or below (Ki of 100 nM or above))”.
Regarding `C=CC(=O)N1CC(CCn2c(=O)ccc3cnc(Nc4ccc(N5CCN(C)CC5)c(OC)c4)nc32)C1` [Example 135], the “Caco Kp” value with Caco-2 cell monolayers is recorded as “A (A represents a value below 5×10^−6 cm/sec)”. Also, the “Tall-1 (pIC50)” value in data set [1] is “B (B represents a pC50 value between 6.7 (included) and 7.5 (IC50 between 200 nM and 32 nM))”. In addition, at Tyk2, the “Tyk 2 (pKi)” value is recorded as “E (E represents a pKi value of 7 or below (Ki of 100 nM or above))”. Moreover, at JAK3, the “JAK 3 (pKi)” value is “B (B represents pKi value between 9 and 10 (Ki between 1 nM and 0.1 nM))”; the “JAK3 (pKi)-JAK1 (pKi)” value is reported as “A (A represents a value of 3 or above)”. Moreover, at JAK1, the “JAK 1 (pKi)” value is “E (E represents a pKi value of 7 or below (Ki of 100 nM or above))”. For the same molecule, the “JAK 2 (pKi)” value on JAK2 is “E (E represents a pKi value of 7 or below (Ki of 100 nM or above))”.
Take `C=CC(=O)N1CC(CCn2c(=O)ccc3cnc(Nc4ccc(N5CCN(C)CC5)c(O)c4)nc32)C1` [Example 136]: the “Caco Kp” value in the data set on Caco-2 cell monolayers was “A (A represents a value below 5×10^−6 cm/sec)”. Besides, the “Tall-1 (pIC50)” value in data set [1] is on record as “A (A represents a pIC50 value≥7.5 (IC50≤32 nM))”. Moreover, the “Tyk 2 (pKi)” value at Tyk2 is given as “E (E represents a pKi value of 7 or below (Ki of 100 nM or above))”. In addition, at JAK3, the “JAK 3 (pKi)” value is “B (B represents pKi value between 9 and 10 (Ki between 1 nM and 0.1 nM))”; the “JAK3 (pKi)-JAK1 (pKi)” value is listed as “A (A represents a value of 3 or above)”. Also, on JAK1, the “JAK 1 (pKi)” value is “E (E represents a pKi value of 7 or below (Ki of 100 nM or above))”. The “JAK 2 (pKi)” value on JAK2 was “E (E represents a pKi value of 7 or below (Ki of 100 nM or above))”.
In the case of `C=CC(=O)N1CC(CCn2c(=O)ccc3cnc(Nc4ccc(N5CCN(C)CC5)cn4)nc32)C1` [Example 137], the “Caco Kp” value with Caco-2 cell monolayers is recorded as “A (A represents a value below 5×10^−6 cm/sec)”. The “Tall-1 (pIC50)” value in data set [1] is “B (B represents a pC50 value between 6.7 (included) and 7.5 (IC50 between 200 nM and 32 nM))”. Besides, the “Tyk 2 (pKi)” value at Tyk2 is listed as “E (E represents a pKi value of 7 or below (Ki of 100 nM or above))”. Further, at JAK3, the “JAK 3 (pKi)” value was “B (B represents pKi value between 9 and 10 (Ki between 1 nM and 0.1 nM))”; the “JAK3 (pKi)-JAK1 (pKi)” value is “A (A represents a value of 3 or above)”. In addition, the “JAK 1 (pKi)” value at JAK1 is listed as “E (E represents a pKi value of 7 or below (Ki of 100 nM or above))”. Also, the “JAK 2 (pKi)” value at JAK2 is recorded as “E (E represents a pKi value of 7 or below (Ki of 100 nM or above))”.
In the case of `C=CC(=O)N1CC(CCn2c(=O)ccc3cnc(Nc4ccc(N5CCN(C(=O)C(C)(C)O)CC5)cc4)nc32)C1` [Example 138], the “Caco Kp” value in the data set on Caco-2 cell monolayers is given as “A (A represents a value below 5×10^−6 cm/sec)”. Moreover, the “Tall-1 (pIC50)” value in data set [1] is “B (B represents a pC50 value between 6.7 (included) and 7.5 (IC50 between 200 nM and 32 nM))”. In addition, the “Tyk 2 (pKi)” value at Tyk2 is recorded as “E (E represents a pKi value of 7 or below (Ki of 100 nM or above))”. Besides, on JAK3, the “JAK 3 (pKi)” value was “A (A represents a pKi value≥10 (Ki≤0.1 nM))” and the “JAK3 (pKi)-JAK1 (pKi)” value is recorded as “A (A represents a value of 3 or above)”. Also, the “JAK 1 (pKi)” value at JAK1 is on record as “E (E represents a pKi value of 7 or below (Ki of 100 nM or above))”. For the same molecule, the “JAK 2 (pKi)” value on JAK2 is “D (D represents a pKi value between 7 and 8 (Ki between 100 nM and 10 nM))”.

The record behind these values is patent publication US11697648B2, “Fused pyrimidine pyridinone compounds as JAK inhibitors” (THERAVANCE BIOPHARMA R&D IP, LLC, priority 2019, dated 2023).
